Consider 35 molecules from patent publication US9511058B2, “Methods for using carboxamide, sulfonamide and amine compounds” (Rigel Pharmaceuticals, Inc., priority 2010, dated 2016).

Bounds are passed on as bounds.

For the test, the target named is AMPK. In words: AMPK activation, enzyme-linked immunosorbent assay. The settings on record: compounds of Table 5 (Table 10). It counts as biochemical.
Take `O=C(NC1CCN(Cc2ccc(Cl)cc2)CC1)c1ccc(OC2CCN(Cc3ccc(F)c(F)c3)CC2)c(F)c1` [5-71, N-(1-(4-chlorobenzyl)piperidin-4-yl)-4-(1-(3,4-difluorobenzyl)piperidin-4-yloxy)-3-fluorobenzamide]: the concentration for a half-maximal effect (EC50) (usually the concentration giving half of the maximal effect) is under 1000 nM.
In turn, `O=C(NC1CCN(Cc2ccc(Cl)cc2)CC1)c1ccc(OC2CCN(Cc3ccc(Cl)cc3)CC2)c(F)c1` [5-72, N-(1-(4-chlorobenzyl)piperidin-4-yl)-4-(1-(4-chlorobenzyl)piperidin-4-yloxy)-3-fluorobenzamide] gave an EC50 of under 1000 nM.
For the molecule `Cc1ccc(CN2CCC(Oc3ccc(C(=O)NC4CCN(Cc5ccc(Cl)cc5)CC4)cc3F)CC2)cc1` [5-73, N-(1-(4-chlorobenzyl)piperidin-4-yl)-3-fluoro-4-(1-(4-methylbenzyl)piperidin-4-yloxy)benzamide], the EC50 was under 1000 nM.
Turning to `O=C(NC1CCN(Cc2ccccc2)CC1)c1ccc(OC2CCN(Cc3ccc(F)c(F)c3)CC2)c(Cl)c1` [5-74, N-(1-benzylpiperidin-4-yl)-3-chloro-4-(1-(3,4-difluorobenzyl)piperidin-4-yloxy)benzamide], the EC50 was under 1000 nM.
Molecule `O=C(NC1CCN(Cc2ccccc2)CC1)c1cc(Cl)c(OC2CCN(Cc3ccc(Cl)cc3)CC2)c(Cl)c1` [5-75, N-(1-benzylpiperidin-4-yl)-3,5-dichloro-4-(1-(4-chlorobenzyl)piperidin-4-yloxy)benzamide] showed a concentration giving a half-maximal response (EC50) of under 1000 nM.
The figure for `O=C(NC1CCN(Cc2ccccc2)CC1)c1cc(Cl)c(OC2CCN(Cc3ccc(F)c(F)c3)CC2)c(Cl)c1` [5-76, N-(1-benzylpiperidin-4-yl)-3,5-dichloro-4-(1-(3,4-difluorobenzyl)piperidin-4-yloxy)benzamide] is under 1000 nM.
The molecule `N#Cc1ccc(CN2CCC(Oc3c(Cl)cc(C(=O)NC4CCN(Cc5ccccc5)CC4)cc3Cl)CC2)cc1` [5-77, N-(1-benzylpiperidin-4-yl)-3,5-dichloro-4-(1-(4-cyanobenzyl)piperidin-4-yloxy)benzamide] returned a concentration giving a half-maximal response (EC50) of under 1000 nM.
In turn, `CC(C)(C)OC(=O)N1CCC(NC(=O)c2ccc(OC3CCN(Cc4ccc(C#N)cc4)CC3)cc2)CC1` [5-78, tert-butyl 4-(4-(1-(4-cyanobenzyl)piperidin-4-yloxy)benzamido)piperidine-1-carboxylate] gave an EC50 of under 1000 nM.
Molecule `N#Cc1ccc(CN2CCC(Oc3ccc(C(=O)NC4CCNCC4)cc3)CC2)cc1` [5-79, 4-(1-(4-cyanobenzyl)piperidin-4-yloxy)-N-(piperidin-4-yl)benzamide] returned an EC50 of over 100000 nM.
Consider `O=C(NC1CCN(Cc2ccc(Cl)cc2)CC1)c1ccc(OC2CCN(Cc3ccc(Cl)c(Cl)c3)CC2)c(F)c1` [5-80, N-(1-(4-chlorobenzyl)piperidin-4-yl)-4-(1-(3,4-dichlorobenzyl)piperidin-4-yloxy)-3-fluorobenzamide], for which the EC50 was under 1000 nM.
Take `N#Cc1ccc(N2CCC(Oc3ccc(C(=O)NC4CCN(Cc5ccc(Cl)cc5)CC4)cc3F)CC2)cc1` [5-81, N-(1-(4-chlorobenzyl)piperidin-4-yl)-4-(1-(4-cyanophenyl)piperidin-4-yloxy)-3-fluorobenzamide]: the EC50 was under 1000 nM.
With `O=C(NC1CCN(Cc2ccccc2)CC1)c1ccc(OC2CCN(Cc3ccc(Cl)c(Cl)c3)CC2)c(F)c1` [5-82, N-(1-benzylpiperidin-4-yl)-4-(1-(3,4-dichlorobenzyl)piperidin-4-yloxy)-3-fluorobenzamide] the figure was under 1000 nM; with `N#Cc1ccc(CN2CCC(Oc3ccc(C(=O)NC4CCN(Cc5ccncc5)CC4)cc3)CC2)cc1` [5-83, 4-(1-(4-cyanobenzyl)piperidin-4-yloxy)-N-(1-(pyridin-4-ylmethyl)piperidin-4-yl)benzamide], under 1000 nM.
As for `O=C(NC1CCN(Cc2ccccc2)CC1)c1ccc(OC2CCN(Cc3ccc(Cl)c(Cl)c3)CC2)c(Cl)c1` [5-84, N-(1-benzylpiperidin-4-yl)-3-chloro-4-(1-(3,4-dichlorobenzyl)piperidin-4-yloxy)benzamide], the EC50 is under 1000 nM.
As for `N#Cc1ccc(CN2CCC(Oc3ccc(C(=O)NC4CCN(Cc5ccccn5)CC4)cc3)CC2)cc1` [5-85, 4-(1-(4-cyanobenzyl)piperidin-4-yloxy)-N-(1-(pyridin-2-ylmethyl)piperidin-4-yl)benzamide], the half-maximal effective concentration (EC50) is under 1000 nM.
The figure for `O=C(NC1CCN(Cc2ccccc2)CC1)c1cccc(OC2CCN(c3ccccn3)CC2)c1` [5-86, N-(1-benzylpiperidin-4-yl)-3-(1-(pyridin-2-yl)piperidin-4-yloxy)benzamide] is under 1000 nM; for `O=C(NC1CCN(Cc2ccncc2)CC1)c1cccc(OC2CCN(c3ccc(C(F)(F)F)cc3)CC2)c1` [5-87, N-(1-(pyridin-4-ylmethyl)piperidin-4-yl)-3-(1-(4-(trifluoromethyl)phenyl)piperidin-4-yloxy)benzamide] it is under 1000 nM.
Regarding `N#Cc1ccc(N2CCC(Oc3cccc(C(=O)NC4CCN(Cc5ccncc5)CC4)c3)CC2)cc1` [5-88, N-(1-(pyridin-4-ylmethyl)piperidin-4-yl)-3-(1-(4-cyanophenyl)piperidin-4-yloxy)benzamide], the EC50 was in the range of 1000 to 10000 nM.
Turning to `N#Cc1cccc(CN2CCC(Oc3cccc(C(=O)NC4CCN(Cc5ccccc5)CC4)c3)CC2)c1` [5-89, N-(1-benzylpiperidin-4-yl)-3-(1-(3-cyanobenzyl)piperidin-4-yloxy)benzamide], the 50% effective concentration (EC50) was 1000 to 10000 nM.
With `CC(C)(C)OC(=O)N1CCC(Oc2ccc(C(=O)NC3CCN(Cc4ccccc4)CC3)cc2Cl)CC1` [5-90, tert-butyl 4-(4-(1-benzylpiperidin-4-ylcarbamoyl)-2-chlorophenoxy)piperidine-1-carboxylate], the EC50 is 1000 to 10000 nM.
Molecule `CC(C)(C)C(=O)N1CCC(Oc2ccc(C(=O)NC3CCN(Cc4ccccc4)CC3)cc2Cl)CC1` [5-91, N-(1-benzylpiperidin-4-yl)-3-chloro-4-(1-pivaloylpiperidin-4-yloxy)benzamide] came in with an EC50 of under 1000 nM.
In turn, `CC(C)(C)OC(=O)N1CCC(Oc2ccc(C(=O)NC3CCN(Cc4ccccc4)CC3)cc2F)CC1` [5-92, tert-butyl 4-(4-(1-benzylpiperidin-4-ylcarbamoyl)-2-fluorophenoxy)piperidine-1-carboxylate] gave an EC50 of 1000 to 10000 nM.
Regarding `O=C(NC1CCN(Cc2ccccc2)CC1)c1ccc(OC2CCNCC2)c(Cl)c1` [5-93, N-(1-benzylpiperidin-4-yl)-3-chloro-4-(piperidin-4-yloxy)benzamide], the concentration giving a half-maximal response (EC50) was over 100000 nM.
On to `COc1cc(C(=O)NCCCNC(=O)OC(C)(C)C)ccc1OC1CCN(Cc2ccc(C(F)(F)F)cc2)CC1` [5-94, tert-butyl 3-(3-methoxy-4-(1-(4-(trifluoromethyl)benzyl)piperidin-4-yloxy)benzamido)propylcarbamate], for which the concentration giving a half-maximal response (EC50) is under 1000 nM.
As to `CC(C)(C)OC(=O)NCCCNC(=O)c1ccc(OC2CCN(Cc3ccc(C(F)(F)F)cc3)CC2)cc1` [5-95, tert-butyl 3-(4-(1-(4-(trifluoromethyl)benzyl)piperidin-4-yloxy)benzamido)propylcarbamate], the concentration giving a half-maximal response (EC50) was under 1000 nM.
Molecule `COc1ccc(CN2CCC(Oc3ccc(C(=O)N4CCN(C(=O)OC(C)(C)C)CC4)cc3)CC2)cc1` [5-96, tert-butyl 4-(4-(1-(4-methoxybenzyl)piperidin-4-yloxy)benzoyl)piperazine-1-carboxylate] returned an EC50 of 1000 to 10000 nM.
On to `COc1ccc(CN2CCC(Oc3ccc(C(=O)NCCCNC(=O)OC(C)(C)C)cc3Cl)CC2)cc1` [5-97, tert-butyl 3-(3-chloro-4-(1-(4-methoxybenzyl)piperidin-4-yloxy)benzamido)propylcarbamate], for which the concentration giving a half-maximal response (EC50) fell in the range of 1000 to 10000 nM.
For the molecule `COc1cc(C(=O)NCCCN2CCOCC2)ccc1OC1CCN(Cc2ccc(Cl)cc2)CC1` [5-98], the 50% effective concentration (EC50) lay in the range of 1000 to 10000 nM.
Molecule `CC(C)(C)OC(=O)N1CCN(C(=O)c2ccc(OC3CCN(Cc4ccccc4)CC3)cc2)CC1` [5-99, tert-butyl 4-(4-(1-benzylpiperidin-4-yloxy)benzoyl)piperazine-1-carboxylate] registered a concentration giving a half-maximal response (EC50) of 1000 to 10000 nM.
Consider `O=C(NCCCN1CCOCC1)c1ccc(OC2CCN(Cc3ccc(Cl)cc3)CC2)cc1` [5-100, 4-(1-(4-chlorobenzyl)piperidin-4-yloxy)-N-(3-morpholinopropyl)benzamide], for which the EC50 was in the range of 1000 to 10000 nM.
As for `COc1ccc(CN2CCC(Oc3ccc(C(=O)NCCCN4CCOCC4)cc3Cl)CC2)cc1` [5-101, 3-chloro-4-(1-(4-methoxybenzyl)piperidin-4-yloxy)-N-(3-morpholinopropyl)benzamide], the half-maximal effective concentration (EC50) was 10000 to 20000 nM.
The figure for `CC(C)(C)OC(=O)NCCCNC(=O)c1ccc(OC2CCN(Cc3ccccc3)CC2)c(Cl)c1` [5-102, tert-butyl 3-(4-(1-benzylpiperidin-4-yloxy)-3-chlorobenzamido)propylcarbamate] is 10000 to 20000 nM.
In the case of `O=C(c1ccc(OC2CCN(Cc3ccccc3)CC2)cc1)N1CCN(c2ccccc2)CC1` [5-103, (4-(1-benzylpiperidin-4-yloxy)phenyl)(4-phenylpiperazin-1-yl)methanone], the half-maximal effective concentration (EC50) was in the range of 20000 to 50000 nM.
For `Cc1ccc(CN2CCC(Oc3ccc(C(=O)NCCCN4CCOCC4)cc3)CC2)cc1` [5-104, 4-(1-(4-methylbenzyl)piperidin-4-yloxy)-N-(3-morpholinopropyl)benzamide], the concentration for a half-maximal effect (EC50) fell in the range of 10000 to 20000 nM.
For the molecule `O=C(c1ccc(OC2CCN(Cc3ccccc3)CC2)cc1)N1CCN(Cc2ccccn2)CC1` [5-105, (4-(1-benzylpiperidin-4-yloxy)phenyl)(4-(pyridin-2-ylmethyl)piperazin-1-yl)methanone], the 50% effective concentration (EC50) lay in the range of 10000 to 20000 nM.
